Reference: ChEMBL document CHEMBL1128115, “Synthesis and pharmacological activity of combretastatin analogues. Naphthylcombretastatins and related compounds” (Bioorg Med Chem Lett, 1995)

Assays:
Assay type in all cases: functional, cell-based
A549 = assay: Compound was tested for inhibition of cell growth of A-549 cells; conditions: Homo sapiens
[1] = Compound was tested for inhibition of cell growth of MEL-28 cells; conditions: Homo sapiens, SK-MEL-28
HT-29 = assay: Compound was tested for inhibition of cell growth of HT-29 cells; conditions: Homo sapiens
P388 = assay: Compound was tested for inhibition of cell growth of P-388 cells; conditions: Mus musculus
L1210 = assay: Compound was tested for inhibition of cell growth of L1210 leukemia cells; conditions: Mus musculus

SMILES | IC50 (A549) [µM] | IC50 [1] [µM] | IC50 (HT-29) [µM] | IC50 (P388) [µM] | IC50 (L1210) [µM]
COc1cc(CCc2ccc3c(c2)OCO3)cc(OC)c1OC | 6.3 | 6.3 | 6.3 | 6.3 | 
COc1cc(CC(=O)c2ccc3ccccc3c2)cc(OC)c1OC | 14.8 | 14.8 | 29.7 | 14.8 | 
COc1cc(CC2(c3ccc4ccccc4c3)SCCCS2)cc(OC)c1OC | 5.8 | 11.7 | 5.8 | 5.8 | 
COc1cc(C(=O)Cc2cc(OC)c(OC)c(OC)c2)ccc1O | > 30 | > 30 | > 30 | 30 | 
COc1ccc(C(=O)Cc2cc(OC)c(OC)c(OC)c2)cc1OC | > 28.9 | > 28.9 | > 28.9 | > 28.9 | 
Oc1ccc(CCc2ccc3c(c2)OCO3)cc1 | > 41.2 | > 41.2 | > 41.2 | 41.2 | 
COc1ccc(C(O)Cc2cc(OC)c(OC)c(OC)c2)cc1OC (centres undefined) | > 28.7 | > 28.7 | > 28.7 | 28.7 | 
COc1cc(CCc2ccc3ccccc3c2)cc(OC)c1OC | 0.3 | 0.3 | 0.3 | 0.3 | 
c1ccc2cc(C3SCCCS3)ccc2c1 |  |  |  |  | 20
COc1ccc(CCc2cc(OC)c(OC)c(OC)c2)cc1OC | 15 | 15 | 15 | 15 | 
COc1cc(CC2(c3ccc4c(c3)OCO4)SCCCS2)cc(OC)c1OC | 5.9 | 4.7 | 5.9 | 5.9 | 
COc1ccc(C2(Cc3cc(OC)c(OC)c(OC)c3)SCCCS2)cc1OC | 22.9 | > 22.9 | 22.9 | 22.9 | 
COc1cc([C@@H]2c3cc4c(cc3[C@H](O)[C@H]3COC(=O)[C@H]23)OCO4)cc(OC)c1OC [PODOFILOX] | 0.05 | 0.06 | 0.05 | 0.05 | 
